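Where inhibition never reached the appropriate level, the endpoint shown equals the highest concentration tested. Otherwise, values were interpolated linearly from a five-concentration, 48-hour dose response in 96-well plates. GI50: concentration for 50% inhibition of growth.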 Activity calls are given as the source filed them. Cut-off read from the data, not from the text of the source: active = GI50 up to about 1.1 µM and inactive = higher.
How the values were obtained:
Assay in all cases: NCI tumour cell line growth inhibition, 48 h
OVCAR-8 = system: OVCAR-8
786-0 = system: 786-0
NCI/ADR-RES = system: NCI/ADR-RES
IGROV-1 = system: IGROV-1
OVCAR-4 = system: OVCAR-4
SN12C = system: SN12C
EKVX = system: EKVX
SK-MEL-2 = system: SK-MEL-2
MOLT-4 = system: MOLT-4
HCT-116 = system: HCT-116
LOX IMVI = system: LOX IMVI
A549 = system: A549
MDA-MB-435 = system: MDA-MB-435
CAKI-1 = system: CAKI-1
SF-539 = system: SF-539
HCC 2998 = system: HCC 2998
SW-620 = system: SW-620
ACHN = system: ACHN
U-251 = system: U-251
T47D = system: T47D

Measured: GI50

O=c1cc(-c2ccccc2)oc2ccc(-c3ccc4oc(-c5ccccc5)cc(=O)c4c3)cc12
inactive: OVCAR-8 16.6 µM | 786-0 28.4 µM | NCI/ADR-RES 16.8 µM | IGROV-1 26.9 µM | OVCAR-4 19.3 µM | SN12C > 10 µM | EKVX 3.75 µM | SK-MEL-2 18.2 µM | MOLT-4 11.2 µM | HCT-116 15.9 µM | LOX IMVI 17.3 µM | A549 16.7 µM | MDA-MB-435 17.8 µM | CAKI-1 16.6 µM | SF-539 15.6 µM | HCC 2998 16 µM | SW-620 30.5 µM | ACHN 20.5 µM

CC(=O)OCCOCn1c2c(c(=S)[nH]c1=O)CCC2
inactive: OVCAR-8 > 100 µM | 786-0 93.8 µM | IGROV-1 > 100 µM | OVCAR-4 > 100 µM | SN12C > 100 µM | EKVX > 100 µM | SK-MEL-2 > 100 µM | MOLT-4 > 100 µM | HCT-116 > 100 µM | LOX IMVI > 100 µM | A549 > 100 µM | MDA-MB-435 > 100 µM | CAKI-1 > 100 µM | SF-539 > 100 µM | HCC 2998 > 100 µM | SW-620 > 100 µM | ACHN > 100 µM | U-251 > 100 µM

COc1cc(C2=N/C(=C/c3cccs3)C(=O)O2)cc(OC)c1OC
inactive: OVCAR-8 > 100 µM | 786-0 > 100 µM | IGROV-1 > 100 µM | OVCAR-4 > 100 µM | SN12C > 100 µM | EKVX > 100 µM | SK-MEL-2 > 100 µM | MOLT-4 > 100 µM | HCT-116 > 100 µM | LOX IMVI > 100 µM | A549 > 100 µM | MDA-MB-435 > 100 µM | CAKI-1 > 100 µM | SF-539 > 100 µM | HCC 2998 > 100 µM | SW-620 > 100 µM | T47D > 100 µM | ACHN > 100 µM | U-251 > 100 µM

COC(=O)C1C(OCc2ccccc2)C2CCC1(OC)C=C2C (configuration not stated)
inactive: OVCAR-8 > 84.9 µM | 786-0 > 100 µM | IGROV-1 > 100 µM | OVCAR-4 > 100 µM | SN12C > 100 µM | EKVX 46.9 µM | SK-MEL-2 > 50.8 µM | MOLT-4 24.9 µM | HCT-116 61.4 µM | LOX IMVI > 68.7 µM | A549 > 100 µM | CAKI-1 > 77.6 µM | SF-539 97.7 µM | HCC 2998 62.5 µM | SW-620 > 100 µM | ACHN > 61.8 µM | U-251 > 55.2 µM

COc1ccccc1NC(=O)C1=C(C)NC(C)=C(C(=O)Nc2ccccc2OC)C1c1ccc(C2C(C(=O)Nc3ccccc3OC)=C(C)NC(C)=C2C(=O)Nc2ccccc2OC)cc1
inactive: OVCAR-8 2.53 µM | 786-0 1.78 µM | IGROV-1 1.99 µM | OVCAR-4 3.94 µM | SN12C 1.79 µM | EKVX 2.54 µM | SK-MEL-2 2.08 µM | MOLT-4 1.19 µM | HCT-116 1.3 µM | LOX IMVI 1.29 µM | A549 > 27.8 µM | CAKI-1 3.13 µM | SF-539 1.68 µM | HCC 2998 1.95 µM | SW-620 1.86 µM | ACHN 2.88 µM | U-251 2.52 µM

CSC(SC)=C(C#N)C(=O)Nc1cccc(Cl)c1
inactive: OVCAR-8 48.8 µM | 786-0 33.8 µM | NCI/ADR-RES 32.5 µM | IGROV-1 69.2 µM | OVCAR-4 27.9 µM | SN12C > 100 µM | EKVX > 100 µM | SK-MEL-2 > 100 µM | MOLT-4 20.5 µM | HCT-116 30.6 µM | LOX IMVI 93.3 µM | A549 65.9 µM | MDA-MB-435 > 100 µM | CAKI-1 45.9 µM | SF-539 57.5 µM | HCC 2998 75.5 µM | SW-620 39.8 µM | ACHN 75.2 µM | U-251 76.7 µM

N#C/C1=C(\N)CCSSSC1
inactive: OVCAR-8 21 µM | 786-0 35.8 µM | IGROV-1 29.7 µM | OVCAR-4 33.9 µM | SN12C 36.3 µM | EKVX 45.9 µM | SK-MEL-2 25.8 µM | MOLT-4 69.3 µM | HCT-116 40.2 µM | LOX IMVI 42.4 µM | A549 45.2 µM | CAKI-1 58.7 µM | SF-539 33.4 µM | HCC 2998 54.8 µM | SW-620 44.6 µM | ACHN 41.7 µM | U-251 31.4 µM

[N-]=[N+]=NC1(c2ccccc2)C(=O)C(Cl)=C(c2ccccc2)N(c2ccccc2)C1=O (configuration not stated)
inactive: OVCAR-8 > 100 µM | 786-0 > 100 µM | IGROV-1 > 100 µM | OVCAR-4 > 100 µM | SN12C > 100 µM | EKVX > 100 µM | SK-MEL-2 > 100 µM | MOLT-4 58.5 µM | HCT-116 > 100 µM | LOX IMVI > 100 µM | A549 > 100 µM | CAKI-1 > 100 µM | SF-539 > 100 µM | HCC 2998 > 100 µM | SW-620 > 100 µM | ACHN > 100 µM | U-251 > 100 µM
